Source: PMC12073438, “Stereoselectivity of In Vivo Processes and Bioactivity of Farrerol Enantiomers” (Molecules, 2025)

Experiments:
CYP1A2 = molecular target: T1, CYP1A2 (Homo sapiens, UniProt P05177); assay: CYP inhibition in liver microsomes (phenacetin); conditions: CYP 1A2, marker substrate phenacetin
T1 sequence (P05177 1-516): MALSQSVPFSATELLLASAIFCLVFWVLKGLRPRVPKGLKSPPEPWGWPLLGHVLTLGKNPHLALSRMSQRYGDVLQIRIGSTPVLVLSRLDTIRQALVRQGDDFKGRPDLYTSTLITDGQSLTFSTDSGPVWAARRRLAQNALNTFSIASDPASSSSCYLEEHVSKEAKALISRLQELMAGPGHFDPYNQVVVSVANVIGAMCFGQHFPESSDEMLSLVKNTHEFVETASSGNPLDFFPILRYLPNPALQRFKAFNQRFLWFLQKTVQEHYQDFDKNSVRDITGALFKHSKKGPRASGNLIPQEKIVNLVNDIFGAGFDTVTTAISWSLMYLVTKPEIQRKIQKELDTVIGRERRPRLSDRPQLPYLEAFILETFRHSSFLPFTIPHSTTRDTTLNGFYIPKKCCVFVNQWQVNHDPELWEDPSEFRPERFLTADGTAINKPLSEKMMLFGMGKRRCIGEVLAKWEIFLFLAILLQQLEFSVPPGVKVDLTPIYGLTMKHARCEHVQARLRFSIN
Experimental: (§1) A liver microsome working solution (20 mg/mL) contained potassium phosphate buffer (0.1 M, pH 7.4), hepatic microsomes and marker substrate solution, which phenacetin, diclofenic acid, S-mephenytoinwer, dextromethorphan, midazolam, coumarin and chlorzoxazone used as substrates for […], CYP2C9, CYP2C19, CYP2D6, CYP3A4/5, CYP2A6 and CYP2E1, respectively. In brief, 238.5 µL of liver microsome working solution was placed in a 1 mL EP tube. […] The reaction was started by injecting NADPH (1 mM), and the resulting mixture was incubated at 37 °C for 10 min. After centrifuging at 4000 rpm for 15 min, the supernatant was transferred and analyzed using LC-MS/MS to detect the corresponding metabolites. Each incubation was conducted in triplicate (n = 3).
(§2) An API 4000 LC/tandem mass spectrometry was used to analyze the concentration of metabolites of various chemical agents using a validated mode. An Atlantis T3 column (2.1 mm × 50 mm, 5 μm) was utilized, employing mobile phases consisting of a 0.1% formic acid solution (A) and a 0.1% acetonitrile formate solution (B). […] As for the detection of CYP 2E1 metabolite, the Flow composition was as follows: 0–0.30 min, 10% B; 0.30–1.30 min, 10–55% B; 1.30–1.50 min, 55–95% B; 1.50–2.00 min, 95% B; 2.00–2.01 min, 95–10% B; the low rate was 0.85 mL/min. ESI was conducted in positive ion mode. MRM was utilized to quantify each metabolite, detecting the following transitions: m/z 152.1/110 for acetaminophen, 312.1/230.0 for 4′-Hydroxydiclofenac, 235.0/150.0 for 4′-hydroxymephentoin, 258.2/199.1 for Dextrorphan, 342.1/203.0 for 1′-hydroxymidazolam, 161.1/133.1 for hydroxycoumarin, and 184.0/120.0 for 6-hydroxyclozoxadone.

[1] = Stereoselective pharmacokinetics in rat kidney tissue; type: in vivo, Sprague–Dawley rats; conditions: rat kidney tissue; i.g. 40 mg/kg racemate, within 24 h
Experimental: (§3) Forty-two rats were divided randomly into seven groups (6 rats per time point at 0.5, 1, 2, 4, 8, 12, and 24 h) and were orally administered farrerol racemate at a dose of 40 mg/kg. Rats from each group were euthanized, and kidney and liver tissues were subsequently obtained. After washing three times using 0.9% sodium chloride solution, the attached blood and fat tissues were removed. Afterward, 0.5 g of the precisely weighed liver and kidney tissues were added to 1 mL 0.9% sodium chloride solution and homogenized in an ice bath. Subsequently, 150 µL of supernatant was transferred into a 2.0 mL EP tube for pre-treatment, in the same way as the pretreatment of plasma samples (see Section 3.4.1).
(§4) Stereoselective chromatographic analysis of farrerol enantiomers was conducted utilizing an ACQUITY UPLC I-Class UPLC system (Waters, Milford, MA, USA), which is equipped with a quaternary pump and an autosampler. The chiral separation was carried out employing a Chiralpak OJ-RH column (250 mm × 4.6 mm, 5 μm), which was obtained from Daicel Chemical Industries (Shanghai, China). The mobile phase consisted of ACN-H2O (60:40, v/v), and the constant flow rate was 0.5 mL/min. The column temperature was set at 25 °C, and the injection volume was 10 μL.
(§5) Mass detection was conducted using a triple quadrupole mass spectrometer (Waters Co., USA) equipped with an electrospray ionization (ESI) source. The detection of enantiomers and internal standards (IS) was carried out in multiple reaction monitoring (MRM) mode utilizing negative ionization. The m/z 299→179 for enantiomers and m/z 267→252 for IS were selected as detecting ions for quantitation. The collision energies (CE) were established at 22 eV and 20 eV, respectively. The primary mass spectrometry (MS) parameters were configured as follows: capillary voltage was set to 3.5 kV, ion source temperature was maintained at 150 °C, desolvation gas flow rate was 800 L/h, and the cone voltage (CV) was adjusted to 1.3 V.
(§6) Pharmacokinetic analysis was conducted utilizing the Drug and Statistics (DAS) 2.0 software provided by the Chinese Pharmacological Society. To assess the differences in pharmacokinetic parameters, the IC50 values of the evaluated CYP enzymes and the permeability coefficients between the two farrerol enantiomers, paired sample t-tests and independent sample t-tests were performed. Statistical significance was defined as * p < 0.05 and ** p < 0.01. All results are presented as mean values ± standard deviation (SD).

[2] = Stereoselective pharmacokinetics in rat liver tissue; type: in vivo, Sprague–Dawley rats; conditions: rat liver tissue; i.g. 40 mg/kg racemate, within 24 h
Experimental: as §3, §4, §5, §6

[3] = Stereoselective pharmacokinetics in rat plasma; type: in vivo, Sprague–Dawley rats
Experimental: The pharmacokinetic data were optimally characterized by a noncompartmental model. The mean concentration-time profiles for the farrerol enantiomers are illustrated in Figure 3, along with the corresponding key pharmacokinetic parameters presented in Table 2.
Twenty-five rats were randomly divided into five experimental groups (A, B, C, D, and E). Groups A and B received farrerol racemate via intragastric administration at doses of 150 mg/kg and 75 mg/kg, respectively. Group C was administered 4 mg/kg of farrerol racemate through caudal intravenous administration. […] Blood samples (300 μL) were obtained from the orbital venous plexus into heparinized tubes at various time points: 0.25, 0.5, 1, 2, 3, 5, 7, 9, 12, and 24 h following gavage administration, and at 0.083, 0.167, 0.25, 0.5, 1, 1.5, 2, 2.5, 3, and 5 h post-intravenous administration. Plasma was separated by centrifugation (3000 rpm, 10 min) and stored at −80 °C until analysis.
A total of 150 μL of plasma and 50 μL of the internal standard solution were added to a 1.5 mL EP tube and mixed using a vortex for 30 s. Subsequently, 500 μL of ether was introduced, and the mixture was vortexed for 5 min. Following centrifugation at 10,000 rpm for 10 min, the resulting organic layer was carefully transferred to a separate tube. Each sample underwent two extraction processes. The resulting ether layer was then evaporated to dryness using a continuous air stream at room temperature. A 250 μL aliquot of methanol was employed to re-dissolve the residue, utilizing vortex mixing for 2 min. Following centrifugation at 14,000 rpm for 10 min, the supernatant was subsequently injected into the HPLC-MS system for analysis.
as §4, §5, §6

CYP2C9 = CYP2C9 (Homo sapiens, UniProt P11712); assay: CYP inhibition in liver microsomes (diclofenac); conditions: CYP 2C9, marker substrate diclofenac
Experimental: as §1, with “After centrifuging at 4000 rpm for 15 min, the supernatant was transferred and analyzed using LC-MS/MS to detect the corresponding metabolites.” left out
An API 4000 LC/tandem mass spectrometry was used to analyze the concentration of metabolites of various chemical agents using a validated mode. An Atlantis T3 column (2.1 mm × 50 mm, 5 μm) was utilized, employing mobile phases consisting of a 0.1% formic acid solution (A) and a 0.1% acetonitrile formate solution (B). […] ESI was conducted in positive ion mode.

CYP2A6 = molecular target: T2, CYP2A6 (Homo sapiens, UniProt P11509); assay: CYP inhibition in liver microsomes (coumarin); conditions: CYP 2A6; marker substrate coumarin; liver microsomes
T2 sequence (P11509 1-494): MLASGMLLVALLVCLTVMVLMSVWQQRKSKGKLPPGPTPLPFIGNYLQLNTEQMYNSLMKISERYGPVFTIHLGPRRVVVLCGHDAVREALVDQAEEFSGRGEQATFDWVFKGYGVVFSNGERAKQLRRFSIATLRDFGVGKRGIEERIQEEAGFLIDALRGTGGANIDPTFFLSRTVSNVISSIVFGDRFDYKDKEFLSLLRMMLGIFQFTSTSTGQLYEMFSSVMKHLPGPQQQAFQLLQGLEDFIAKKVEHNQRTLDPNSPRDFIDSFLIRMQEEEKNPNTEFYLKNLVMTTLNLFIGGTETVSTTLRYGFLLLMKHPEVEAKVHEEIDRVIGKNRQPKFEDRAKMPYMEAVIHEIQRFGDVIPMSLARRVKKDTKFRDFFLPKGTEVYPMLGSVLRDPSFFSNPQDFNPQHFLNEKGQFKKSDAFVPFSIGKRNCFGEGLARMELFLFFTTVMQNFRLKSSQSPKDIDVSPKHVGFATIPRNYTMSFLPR
Experimental: as §1, §2

CYP3A4/5 = assay: CYP inhibition in liver microsomes (midazolam); conditions: human, microsomes, pH 7.4
Experimental: as §1, §2

CYP2C9, sequence (P11712 whole entry): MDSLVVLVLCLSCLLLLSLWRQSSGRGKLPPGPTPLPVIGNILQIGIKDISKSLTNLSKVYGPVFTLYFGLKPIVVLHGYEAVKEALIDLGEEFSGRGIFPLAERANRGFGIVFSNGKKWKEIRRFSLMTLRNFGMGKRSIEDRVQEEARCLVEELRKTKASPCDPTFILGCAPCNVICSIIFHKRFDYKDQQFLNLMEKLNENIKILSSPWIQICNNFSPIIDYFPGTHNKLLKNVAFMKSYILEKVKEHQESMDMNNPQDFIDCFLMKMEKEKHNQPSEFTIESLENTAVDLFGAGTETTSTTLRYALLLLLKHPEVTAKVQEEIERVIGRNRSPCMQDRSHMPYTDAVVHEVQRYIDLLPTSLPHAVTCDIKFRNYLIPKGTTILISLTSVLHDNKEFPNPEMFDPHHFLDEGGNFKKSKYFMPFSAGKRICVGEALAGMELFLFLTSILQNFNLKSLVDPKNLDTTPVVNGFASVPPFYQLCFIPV

O=c1cc(-c2ccccc2)oc2ccc3ccccc3c12 [β-naphthoflavone, reference compound]
IC50 (CYP1A2): 0.129 µM

Cc1c(O)c(C)c2c(c1O)C(=O)CC(c1ccc(O)cc1)O2 (racemic) [racemic farrerol, 2,3-dihydro-5,7-dihydroxy-2-(4-hydroxyphenyl)-6,8-dimethyl-4-benzopyrone]
enantiomeric fraction (EF) = E(+)/(E(+)+E(−)) [1]: less than 0.5
enantiomeric fraction (EF) = E(+)/(E(+)+E(−)) [2]: less than 0.5
enantiomeric fraction (EF) = E(+)/(E(+)+E(−)) ([3]; intravenous administration of racemate): around 0.7
enantiomeric fraction (EF) = E(+)/(E(+)+E(−)) ([3]; oral administration of racemate (all doses)): greater than 0.6
enantiomeric fraction (EF) = E(+)/(E(+)+E(−)) ([3]; oral dose of 75 mg/kg, approximately 1.5 to 24 h): around 0.8

Nc1ccc(S(=O)(=O)Nc2ccnn2-c2ccccc2)cc1 [sulfaphenazole, reference compound]
IC50 (CYP2C9): 0.219 µM

N[C@@H]1C[C@H]1c1ccccc1 (racemic) [Tranylcypromine, reference compound]
IC50 (CYP2A6): 0.383 µM

CC(=O)N1CCN(c2ccc(OCC3COC(Cn4ccnc4)(c4ccc(Cl)cc4Cl)O3)cc2)CC1 (stereo not drawn) [ketoconazole, reference compound]
IC50 at 10 min (CYP3A4/5): 0.0104 µM
